Columns and labels:
[1] = Cleavage of probe by incubation with Na2S2O4, LC-MS analysis; format: physicochemical; conditions: 100 mM Na2S2O4, after 30 minutes
Protocol: We initially tested the cleavage of SV1 (shown in FIG. 3) by incubation with 100 mM Na2S2O4. After 30 minutes full cleavage of SV1 into the two aniline fragments 3 and 4 (FIG. 3) was observed using LC-MS analysis.

[2] = target: T1, Cathepsin B (Rattus norvegicus, UniProt P00787); experiment: Proteases targeted by SV1 after chemoselective release from immobilized streptavidin, LC-MS/MS; format: biochemical; conditions: rat liver homogenate, SV1 10 μM 2 h
T1 construct: from tissue; host or cells: rat liver homogenate
Protocol: (§1) Rat liver homogenate (20 mg of total protein) in reaction buffer was incubated with SV1 (10 μM) for 2 h. Unreacted probe was removed by filtration over a PD10 column (Amersham Bioscience) and the eluate (in PBS buffer) was shaken with immobilized streptavidin slurry (20 μL) for 1 h. The streptavidin beads were subsequently washed with PBS buffer containing 1M NaCl, 0.1% SDS and 10% EtOH (3× each). Proteases labeled by the probe were cleaved off with Na2S2O4 using the above-described procedure. The pooled supernatant was denatured by incubating with 1 volume of 12 M urea. Next, disulfide bonds were reduced with DTT (10 mM, 60 minutes) and free cysteines were capped with iodoacetamide (40 mM, 60 minutes). Unreacted iodoacetamide was neutralized by addition of an equal amount of DTT and the concentration of urea was lowered to 2 M by addition of water. Trypsin digestion was performed overnight at 37° C. (0.1 μg of trypsin). Digestion was stopped by addition of formic acid (5% final concentration) and digested samples were desalted using a C18 Zip-Tip (Millipore) prior to LC/MS-MS analysis. Data was analyzed by the Sequest algorithm (Novatia) and evaluated by Scaffold (Proteome Software Inc.). Peptides with probability value>95% (in Scaffold) were considered positive hits.
(§2) Although the optimized release of probe-labeled proteins from streptavidin using dithionite is slightly lower in efficiency than under denaturing conditions, this method is likely to result in less background signals leading to easier identification of the target proteases. In addition the direct on-bead cleavage method using a mass spectrometry-compatible buffer allows direct in solution digestion of samples followed by MS analysis. To confirm these issues we analyzed the samples in FIG. 2 by direct solution digestion with trypsin followed by LC-MS/MS analysis of all peptide products. This analysis identified multiple peptides from each of the expected cathepsin proteases without any contamination by background proteins (Table 1). […] A more comprehensive and detailed analysis is reported in Fonović et al., Proteomic evaluation of chemically cleavable activity based probes,” Mol. and Cell Proteomics Manuscript M700-124-MCP200 (published online Jul. 5, 2007).

[3] = target: T2, Cathepsin C (Rattus norvegicus, UniProt P80067); experiment: as above; format: biochemical; conditions: rat liver homogenate, SV1 10 μM 2 h
T2 construct: from tissue; host or cells: rat liver homogenate
Protocol: as §1, §2

[4] = target: T3, Cathepsin H (Rattus norvegicus, UniProt P00786); experiment: as above; format: biochemical; conditions: rat liver homogenate, SV1 10 μM 2 h
T3 construct: from tissue; host or cells: rat liver homogenate
Protocol: as §1, §2

[5] = target: T4, Cathepsin Z (Rattus norvegicus, UniProt Q9R1T3); experiment: as above; format: biochemical; conditions: rat liver homogenate, SV1 10 μM 2 h
T4 construct: from tissue; host or cells: rat liver homogenate
Protocol: as §1, §2

T4 sequence (Q9R1T3 64-306): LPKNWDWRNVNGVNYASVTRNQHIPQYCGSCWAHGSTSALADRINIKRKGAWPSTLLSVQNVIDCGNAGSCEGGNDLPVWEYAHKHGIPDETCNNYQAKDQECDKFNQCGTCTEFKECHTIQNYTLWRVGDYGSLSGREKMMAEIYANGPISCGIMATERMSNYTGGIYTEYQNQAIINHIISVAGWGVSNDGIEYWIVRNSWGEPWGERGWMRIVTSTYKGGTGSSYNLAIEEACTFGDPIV
T3 sequence (P00786 96-333): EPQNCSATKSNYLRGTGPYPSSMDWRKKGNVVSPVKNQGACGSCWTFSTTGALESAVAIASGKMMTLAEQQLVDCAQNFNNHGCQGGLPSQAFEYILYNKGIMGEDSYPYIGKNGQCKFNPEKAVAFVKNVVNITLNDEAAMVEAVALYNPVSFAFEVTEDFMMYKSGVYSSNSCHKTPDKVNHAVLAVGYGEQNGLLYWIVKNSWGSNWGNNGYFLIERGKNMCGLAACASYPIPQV
T2 sequence (P80067 25-462): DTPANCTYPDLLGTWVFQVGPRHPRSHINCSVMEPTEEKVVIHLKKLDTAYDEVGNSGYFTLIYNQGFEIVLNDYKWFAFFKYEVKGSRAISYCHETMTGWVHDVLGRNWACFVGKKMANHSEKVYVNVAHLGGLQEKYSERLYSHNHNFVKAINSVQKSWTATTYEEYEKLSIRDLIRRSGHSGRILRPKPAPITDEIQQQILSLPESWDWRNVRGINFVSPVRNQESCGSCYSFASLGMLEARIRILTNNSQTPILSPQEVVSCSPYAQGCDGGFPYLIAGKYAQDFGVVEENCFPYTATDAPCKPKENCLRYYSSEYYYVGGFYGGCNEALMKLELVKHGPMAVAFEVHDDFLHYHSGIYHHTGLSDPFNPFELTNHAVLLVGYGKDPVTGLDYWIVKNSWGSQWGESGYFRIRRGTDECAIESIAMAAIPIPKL
T1 sequence (P00787 80-333): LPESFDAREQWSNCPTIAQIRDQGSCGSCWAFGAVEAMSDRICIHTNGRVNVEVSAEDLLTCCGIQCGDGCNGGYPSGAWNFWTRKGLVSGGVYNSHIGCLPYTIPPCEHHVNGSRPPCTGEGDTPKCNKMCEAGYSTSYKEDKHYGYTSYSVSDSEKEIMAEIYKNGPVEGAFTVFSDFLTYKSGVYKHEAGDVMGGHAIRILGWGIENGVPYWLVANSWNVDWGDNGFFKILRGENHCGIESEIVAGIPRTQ

CCOC(=O)[C@H]1O[C@@H]1C(=O)N[C@@H](CC(C)C)C(=O)N[C@@H](Cc1ccc(O)cc1)C(=O)NCCc1ccc(O)c(N=Nc2ccc(C(=O)N[C@@H](CCCCNC(=O)CCCC[C@@H]3SC[C@@H]4NC(=O)N[C@@H]43)C(N)=O)cc2)c1 [SV1]
cleavage into the two aniline fragments 3 and 4 [1]: full cleavage
Number of Identified peptides [2]: 2
Sequence coverage [2]: 8%
Number of Identified peptides [3]: 3
Sequence coverage [3]: 16%
Number of Identified peptides [4]: 5
Sequence coverage [4]: 29%
Number of Identified peptides [5]: 4
Sequence coverage [5]: 32%
